Results taken from patent US4579848A, “5-substituted[1,2,4]triazolo[1,5-c]pyrimidin-2-amines” (American Cyanamid Company, priority 1984, dated 1986).

tested on: immunologically stimulated human basophils; experiment: Inhibition of histamine release from immunologically stimulated human basophils; format: cell-based; conditions: Leukocyte, 1 h; human leukocytes challenged with anti-IgE or antigen, 60 minutes at 37° C.; linear regression; read-out: ED50 (the concentration in μM which causes a 50% inhibition of histamine release)
Description: The novel compounds of this invention have been tested by the procedure of Lichtenstein, L. M. and Osler, A. G., J. Exp. Med., 120, 507-530 (1964), which evaluates the ability of compounds to inhibit mediator (histamine) release from immunologically stimulated human basophils.
Eighty milliliters of blood is withdrawn from subjects with known histamine release to anti-IgE, ragweed antigen or other specific allergen, using four 20 ml heparinized tubes. This 80 ml of blood is mixed with 20 ml of saline containing 0.6 g of dextrose and 1.2 g of dextran. The blood is allowed to sediment at room temperature in two 50 ml polycarbonate centrifuge tubes until a sharp interface develops between the red cells and plasma (60-90 minutes). The plasma (top) layer from each tube is withdrawn by pipet and transferred to respective 50 ml polycarbonate tubes. The plasma is centrifuged for 8 minutes at 110X g at 4° C. The supernatant is carefully poured off as completely as possible and the cell button is resuspended in 2-3 ml of Tris-A buffer using a siliconized Pasteur pipet. The resuspension is accomplished by drawing the liquid gently in and out of the pipet, with the tip below the liquid, until an even suspension of cells is obtained. Sufficient Tris-A buffer is then added to bring the volume in the tube to about 45 ml and the tube is centrifuged at 110X g for 8 minutes at 4° C. The supernatant is poured off and the cell button is resuspended and centrifuged as described above. The supernatant is poured off and the cell button is suspended in 2-3 ml of Tris-ACM buffer to make the final volume sufficient to allow addition to the reaction tubes.
Reaction tubes containing anti-IgE or antigens, either alone or with test compound in a total volume of 0.2 ml are prepared and placed in a 37° C. bath. The cells are warmed to 37° C. and frequently swirled to ensure an even suspension, while 1.0 ml aliquots are added to each reaction tube. The tubes are then incubated for 60 minutes at 37° C., vortexing the tubes gently every 15 minutes to keep the cells evenly suspended. When the reaction is complete, the tubes are centrifuged at 4° C. for 10 minutes at 1500 rpm to sediment the cells. One ml aliquots of supernatant are transferred to 12X 75 mm polyethylene tubes and 0.2 ml of 8% perchloric acid is added to each tube. Blanks and totals are included in each test. The blanks have cells and all reagents except antigen or anti-IgE. The totals contain 0.24 ml of 8% perchloric acid, one ml of cells and 0.2 ml of buffer. All samples are then centrifuged to remove the precipitate protein.
This automated method has been described by Siraganian, R. P., in Anal. Biochem., 57, 383 (1974) and J. Immunol. Methods, 7, 283 (1975) and is based on the manual method of Shore, P. A., et al., J. Pharmacol. Exp. Ther., 217, 182 (1959).
The automated system consists of the following Technicon Autoanalyzer II components: Sampler IV, Dual-Speed Proportioning Pump III, Fluoronephelometer with a narrow pass primary filter 7-60 and a secondary filter 3-74, Recorder, and Digital Printer. The manifold used is the one described by Siraganian vide supra, with the following modifications: the dialyzer is omitted; all pumping tubes pass through a single proportioning pump with large capacity and twice the volume of sample is taken for analysis.
The automated chemistry consists of the following steps: Extraction from alkaline saline into butanol, back extraction into dilute hydrochloric acid by addition of heptane, reaction of histamine with o-phthaldialdehyde(OPT) at high pH and conversion of the OPT adduct to a stable fluorophore with phosphoric acid. The reaction product is then passed through the fluorometer. The full scale response is adjusted to 50 ng histamine base with a threshold sensitivity of approximately 0.5 ng.
The instrument blank (wash) is subtracted from the ng histamine of each sample. […]

SMILES	IC50 [µM]
CC(=O)Nc1nc2ccnc(-c3cccc(C(F)(F)F)c3)n2n1	20
OC(CCl)CNc1nc2ccnc(-c3cccc(C(F)(F)F)c3)n2n1 (centres unmarked) [1-Chloro-3-[[5-[3-(trifluoromethyl)phenyl][1,2,4]triazolo[1,5-c]pyrimidin-2-yl]amino]-2-propanol]	9.5
CN(C)C(=O)c1cccc(-c2nccc3nc(N)nn23)c1 [3-(2-Amino[1,2,4]triazolo[1,5-c]pyrimidin-5-yl)-N,N--dimethylbenzamide]	11
Nc1nc2ccnc(-c3cccc([N+](=O)[O-])c3)n2n1 [5-(3-nitrophenyl)[1,2,4]triazolo[1,5-c]pyrimidin-2-amine]	3.8
Nc1nc2ccnc(-c3cc(C(F)(F)F)cc(C(F)(F)F)c3)n2n1 [5-[3,5-bis(trifluoromethyl)phenyl][1,2,4]triazolo[1,5-c]pyrimidin-2-amine]	0.7
Nc1nc2ccnc(-c3cccc(C(Cl)Cl)c3)n2n1 [5-[3-(dichloromethyl)phenyl][1,2,4]triazolo[1,5-c]pyrimidin-2-amine]	1.2
Nc1nc2ccnc(-c3cccc(C(F)(F)F)c3)n2n1 [5-[3-(trifluoromethyl)phenyl][1,2,4]triazolo[1,5-c]pyrimidin-2-amine]	2.7
Cc1cc2nc(N)nn2c(-c2cccc(C(F)(F)F)c2)n1 [7-methyl-5-[3-(trifluoromethyl)phenyl][1,2,4]triazolo[1,5-c]pyrimidin-2-amine]	100
Cc1cnc(-c2cccc([N+](=O)[O-])c2)n2nc(N)nc12 [8-Methyl-5-(3-nitrophenyl)[1,2,4]triazolo[1,5-c]pyrimidin-2-amine]	8.7
Cc1cnc(-c2cccc(C(F)(F)F)c2)n2nc(N)nc12 [8-Methyl-5-[3-(trifluoromethyl)phenyl][1,2,4]triazolo[1,5-c]pyrimidin-2-amine]	5.6
CNc1nc2ccnc(-c3cccc(C(F)(F)F)c3)n2n1 [N-Methyl-5-[3-trifluoromethyl)phenyl][1,2,4]triazolo[1,5-c]pyrimidin-2-amine]	16
Cc1ccc(S(=O)(=O)Nc2cccc(-c3nccc4nc(N)nn34)c2)cc1 [N-[3-(2-Amino[1,2,4]triazolo[1,5-c]pyrimidin-5yl)phenyl]-4-methylbenzenesulfonamide]	1.5
CC(=O)Nc1nc2ccnc(-c3cccc(NS(=O)(=O)c4ccc(C)cc4)c3)n2n1 [N-[5-[3-[[(4-Methylphenyl)sulfonyl]amino]phenyl]-[1,2,4]triazolo[1,5-c]pyrimidin-2-yl]acetamide]	1.7
CC(=O)Nc1nc2c(C)cnc(-c3cccc([N+](=O)[O-])c3)n2n1 [N-[8-Methyl-5-(3-nitrophenyl)[1,2,4]triazolo[1,5-c]pyrimidin-2-yl]acetamide]	11
CC(=O)Nc1nc2c(C)cnc(-c3cccc(NS(=O)(=O)c4ccc(C)cc4)c3)n2n1 [N-[8-Methyl-5-[3-[[4-methylphenyl)sulfonyl]amino]phenyl][1,2,4]triazolo[1,5-c]pyrimidin-2-yl]acetamide]	34.4

Results, then the molecule that gave them:

IC50 [µM]	SMILES
0.8	Nc1nc2ccnc(-c3cccc(C=O)c3)n2n1 [3-(2-Amino[1,2,4]triazolo[1,5-c]pyrimidin-5-yl)benzaldehyde]
11	CCOC(=O)c1cccc(-c2nccc3nc(N)nn23)c1 [3-(2-amino[1,2,4]triazolo[1,5-c]pyrimidin-5-yl)benzoic acid, ethyl ester]
16	CCOC(=O)c1ccc(-c2nccc3nc(N)nn23)cc1 [4-(2-amino[1,2,4]triazolo[1,5-c]pyrimidin-5-yl)benzoic acid, ethyl ester]
14	C#Cc1cccc(-c2nccc3nc(N)nn23)c1 [5-(3-Ethynylphenyl)[1,2,4]triazolo[1,5-c]pyrimidin-2-amine]
7.8	Cc1cccc(-c2nccc3nc(N)nn23)c1 [5-(3-Methylphenyl)[1,2,4]triazolo[1,5-c]pyrimidin-2-amine]
3.3	Nc1nc2ccnc(-c3cccc(Br)c3)n2n1 [5-(3-bromophenyl)[1,2,4]triazolo[1,5-c]pyrimidin-2-amine]
4.3	Nc1nc2ccnc(-c3cccc(Cl)c3)n2n1 [5-(3-chlorophenyl)[1,2,4]triazolo[1,5-c]pyrimidin-2-amine]
3.8	Cc1cnccc1-c1nccc2nc(N)nn12 [5-(3-methyl-4-pyridinyl)[1,2,4]triazolo[1,5-c]pyrimidin-2-amine]
49.4	Nc1nc2ccnc(-c3cccnc3)n2n1 [5-(3-pyridinyl)[1,2,4]triazolo[1,5-c]pyrimidin-2-amine]
4.9	Nc1nc2ccnc(-c3cc[n+]([O-])cc3)n2n1 [5-(4-Pyridinyl)[1,2,4]triazolo[1,5-c]pyrimidin-2-amine, pyridine-1-oxide]
31	Nc1nc2ccnc(-c3ccc(F)cc3)n2n1 [5-(4-fluorophenyl)[1,2,4]triazolo[1,5-c]pyrimidin-2-amine]
33	Nc1nc2ccnc(-c3ccncc3)n2n1 [5-(4-pyridinyl)[1,2,4]triazolo[1,5-c]pyrimidin-2-amine]
3	Nc1nc2ccnc(-c3cccc(OC(F)F)c3)n2n1 [5-[3-(difluoromethoxy)phenyl][1,2,4]triazolo[1,5-c]pyrimidin-2-amine]

tested on: female Hartley-strain guinea pigs; experiment: Passive Anaphylaxis Test; format: in vivo, guinea pig; design: key: If the Fisher test is significant, the compound is considered active; If the rank sum test is significant, the compound is considered to have weak activity; conditions: oral, one hour before ovalbumin challenge; standard dose 50 mg/kg; ten animals
Description: At -48 hours (relative to antigen challenge at time 0), 2 ml of saline containing 0.2-0.05 IgG hyperimmune serum (depending on batch of antibody used) was injected intraperitoneally (i.p.) into 250-300 g female Hartley-strain guinea pigs. One hour before challenge, the test compound is given to ten animals orally at 4 ml/kg of a suspension in 0.5% carboxymethylcellulose. The standard dose is 50 mg/kg. Ten control animals receive the vehicle only. The challenge consists of an intravenous injection of 0.25-2.0 mg of ovalbumin in one ml of saline. The time to the first observable symptom of anaphylaxis (normally this is a scratching of the nose) and the time to loss of righting reflex are recorded for each animal. Thirty minutes after the challenge the numbers of deceased and living animals are also recorded.
The treated and control groups are compared by a Mann-Whitney rank sum test for the times to symptom and times to collapse. In addition, a Fisher's exact test is done on the number of collapsed vs. noncollapsed for control and treated groups. If the Fisher test is significant, the compound is considered active. If the rank sum test is significant, the compound is considered to have weak activity.

SMILES	activity in passive anaphylaxis test (Fisher's exact test on collapsed vs. noncollapsed)
Nc1nc2ccnc(-c3ccccn3)n2n1 [5-(2-pyridinyl)[1,2,4]triazolo[1,5-c]pyrimidin-2-amine]	active
